Measured values taken from patent US5686448A (priority 1995, dated 1997).
Like-named read-outs stand apart in the source and are kept apart here.

Key:
HSV-2 (333 strain) = settings: for % plaque inhibition: 2 hours pre-incubation
Description: In Series No. 1 of Example No. 1, monolayer cultures of Vero, RK-13 (rabbit kidney), and WISH (human amnion, Hayflick) cells were used in the experiments of Example No. 1. The cells were grown in Basal Minimal Eagle's Media supplemented with 5% fetal calf serum, 1% glutamine, sodium bicarbonate and antibiotics. Cultures were maintained in a maintenance media that was the same media, except that the maintenance media contained 2% fetal calf serum. An F Strain of HSV-1 was chosen because it is a well-known prototype of HSV-1. This F Strain can be obtained from the American Type Culture Collection (ATCC), 12301 Parklawn Drive, Rockville, Md. 20852, at which it is identified as ATC-VR 733. For studies with HSV-2, a G strain of HSV-2 (ATCC-VR 734) and a 333 strain of HSV-2 were selected. These strains also can be obtained from the ATCC.
Accordingly, the pre-inoculation experiments measured the effect of the drug on a cell that was already infected with the virus. The pre-incubation experiments measured the cell cultures that were treated with the drug prior to the inoculation to determine if these cells then would be permissive or non-permissive to the tested virus. In these experiments, plaque reduction assays provided a quantitative measure of antiviral activity and was deemed to be reliable and objective.
In the pre-incubation experiments, the media was either decanted or gently aspirated from the cultures. After decanting or aspirating, 1 ml of the drug dilution plus maintenance media was added to the cultures. The cultures that served as virus controls or cell controls received 2 ml of maintenance media. After the pre-treatment period, the media was again aspirated and the cell cultures were infected with the virus.
When this occurred, the cultures were fixed and stained with crystal violet. The plaque were then carefully counted under the microscope. By such a counting and careful comparison, percentages of plaque inhibition in the treated cultures were then calculated.
The 333 strain, which can be obtained from ATCC, was used.

Vero cells = test system: Vero cells
Description: To determine the toxicity level of the drug, all three cell lines--RK-13, Vero cells, and WISH cells--were used. In the toxicity experiments, the effect of the drug on the uninfected cell for a range of periods of time was determined. Accordingly, cultures were incubated with and without the drug. The time of exposure was from one to seven hours. A comparison was then made between the drug tested cultures and the control cultures. After each period of incubation, the cells were washed and fresh media was added to the cells. The cell viability was then determined by dividing these cultures and having them grow into new cell cultures.
At the end of the incubation period, the cultures were washed twice with sterile PBS (Dulbecco). Fresh medium was added to each of the cultures. The cultures were then incubated for an additional 24 hours.
(§1) Healthy confluent monolayer cell cultures were overlaid with 1 ml of the drug and incubated for 48 hours at 37° C. and then stained. Cell cultures with maintenance media were used as controls.

[1] = test system: Flow 1000 cells (foreskin cells); settings: 25 mg/ml, 48 hours
Description: as §1

cell-free HSV virus = settings: 20 mg/ml
Description: Both mixtures were maintained at 4° C. for 30 minutes, 60 minutes, or 90 minutes. 0.3 ml of the solutions were plated onto susceptible cell cultures and incubated at 37° C. for 36 hours. All cultures were stained and compared to the virus control.

[2] = Excerpt: Patient B is a person diagnosed as having both HSV type 1 (expressed as oral lesions) and HSV type 2 (expressed as penile lesions).
Patient E is a person who weighed 93 kg when they reported for treatment.
Patient K is a person who weighed 59 kg. when they reported for treatment. They were diagnosed as having HSV type 2. They described a history of lesions on the buttocks and genital region with attacks occurring monthly in cooler weather and weekly in warmer weather.

HSV-1 (F strain) [3] = test system: HSV-1 (F strain)
HSV-1 (F strain) [4] = test system: HSV-1 (F strain); remark: listed apart in the source
HSV-1 (McKrae strain) = settings: for cells exhibiting CPE, area of infection per field: 20 mg/ml
[5] = Exp. 1D, added after adsorption, 25.0 mg/culture
[6] = Exp. 1D, added after adsorption, 50.0 mg/culture

With `CC[N+](CC)(CC)CC.[Cl-]` [TEAC, tetraethylammonium chloride] the “sensitivity to TEAC vs HSV-1” value (HSV-2 (333 strain); 333 strain) was “even more sensitive to TEAC than HSV-1”, the “% plaque inhibition” value (HSV-2 (333 strain); 12.5 mg/culture) was 25% and the “% plaque inhibition” value (HSV-2 (333 strain); 25 mg/culture) was 42%. The “% plaque inhibition” value (HSV-2 (333 strain); 50 mg/culture) was 56%, the “inhibition of in vitro replication” value (HSV-2 (333 strain); HSV-2, summary) was “inhibited the in vitro replication of HSV-1 and HSV-2” and the toxicity (Vero cells; 25 mg/ml, 48 hours) was “slight toxicity”. For the same compound, the “change in morphology of cells” value (Vero cells; 5, 2.5, 1.25 mg/culture overnight) was “No change in the morphology of the cells”, the “growth or general appearance vs untreated” value (Vero cells; 5, 2.5, 1.25 mg/culture, additional 24 hours in fresh medium) was “no apparent difference in the growth or general appearance” and the toxicity [1] was “toxicity”. The “inactivation of cell-free virus” value (cell-free HSV virus) was “does not inactivate the virus”, the side effects ([2]; Patient A, first infusion 2.8 cc) was “some blurred vision and slight dizziness on rising to the seated position” and the side effects ([2]; Patient A, second infusion 3.2 cc) was “some blurred vision”. For the same compound, the drug related effects ([2]; Patient B, 3.7 cc (5 mg/kg)) was “blurred vision, dryness of the mouth, and unsteady gait”, the “time to cessation of drug related effects after infusion” value ([2]; Patient B, 3.7 cc (5 mg/kg)) was 10 to 15 min and the side effects ([2]; Patient C, 3.85 cc (5 mg/kg)) was “slightly blurred vision”. For the same compound, the side effects ([2]; Patient D, 2.8 cc (5 mg/kg)) was “dry mouth and transient blurred vision”, the side effects ([2]; Patient E, 4.8 cc (5 mg/kg)) was “slightly blurred vision” and the reddening of lip ([2]; Patient G, 4.3 cc) was “some reddening of the lip”. For the same compound, the side effects ([2]; Patient J, 3.6 cc (5.5 mg/kg)) was “some blurred vision”, the side effects ([2]; Patient K, first infusion 3.1 cc) was “some blurred vision” and the side effects ([2]; Patient K, second infusion 3.4 cc) was “blurred vision”. The “duration of feeling badly following treatment” value ([2]; Patient L, 2.9 cc (5.5 mg/kg)) was 24 to 36 h, the side effects ([2]; Patient L, 2.9 cc (5.5 mg/kg)) was “some blurred vision” and the average plaque number (HSV-1 (F strain) [3]; 2.5 mg/ml (1 ml plus 4 ml media), Vero, control 488.5) was 75.5 plaque. The “size of the plaque vs control” value (HSV-1 (F strain) [3]; 2.5 mg/ml, Vero) was “appreciably smaller”, the “suppression of viral growth” value (HSV-1 (F strain) [3]; summary of first series) was “not only by the reduced number of plaque, but also by their reduced size” and the “% plaque inhibition” value (HSV-1 (F strain) [4]; Exp. 1C, added after inoculation, 0.62 mg/culture) was 30%. The “% plaque inhibition” value (HSV-1 (F strain) [4]; Exp. 1C, added after inoculation, 1.25 mg/culture) was 39%, the “% plaque inhibition” value (HSV-1 (F strain) [4]; Exp. 1C, added after inoculation, 2.50 mg/culture) was 46% and the “% plaque inhibition” value (HSV-1 (F strain) [4]; Exp. 1C, added after inoculation, 5.00 mg/culture) was 45%. The “% plaque inhibition” value (HSV-1 (F strain) [4]; Exp. 1C, added after inoculation, 10.00 mg/culture) was 56%, the antiviral activity (HSV-1 (F strain) [4]; Exp. 1C, all dilutions) was “Antiviral activity was seen in all dilutions tested” and the “% plaque inhibition” value (HSV-1 (F strain) [4]; Exp. 1D, added after adsorption, 6.2 mg/culture) was 20%. The “% plaque inhibition” value (HSV-1 (F strain) [4]; Exp. 1D, added after adsorption, 12.5 mg/culture) was 62%, the plaque formation (HSV-1 (F strain) [4]; Exp. 1D, added after adsorption, 25 mg/culture) was “no plaque formed” and the “% plaque inhibition” value (HSV-1 (F strain) [4]; [5]) was 100%. The “cell layer appearance (thin = cells attached, monolayer not confluent)” value (HSV-1 (F strain) [4]; [5]) was “thin”, the plaque formation (HSV-1 (F strain) [4]; Exp. 1D, added after adsorption, 50 mg/culture) was “no plaque formed” and the “% plaque inhibition” value (HSV-1 (F strain) [4]; [6]) was 100%. The “cell layer appearance (thin = cells attached, monolayer not confluent)” value (HSV-1 (F strain) [4]; [6]) was “thin”, the “inhibition of in vitro replication” value (HSV-1 (F strain) [4]; HSV-1, summary) was “inhibited the in vitro replication of HSV-1 and HSV-2” and the “cells exhibiting CPE, area of infection per field” value (HSV-1 (McKrae strain); 6 hours P.I., virus control 1/4) was 1/6. The “cells exhibiting CPE, area of infection per field” value (HSV-1 (McKrae strain); 30 hours P.I., virus control 1/2) was “scattered”, the “No. of cells with virus particles” value (HSV-1 (McKrae strain); 6 hours P.I., 100 cells examined, control 0) was 0 and the “No. of cells with internuclear dense bodies” value (HSV-1 (McKrae strain); 6 hours P.I., 100 cells examined, control 14) was 12. For the same compound, the Total % (HSV-1 (McKrae strain); 6 hours P.I., 100 cells examined, control 14%) was 12%, the cell membrane appearance (HSV-1 (McKrae strain); 6 hours post infection) was “unusually extended and wavy” and the “No. of cells with internuclear dense bodies” value (HSV-1 (McKrae strain); 24 hours P.I., 300 cells examined, control 0 of 50) was 12. The “No. of cells with virus particles” value (HSV-1 (McKrae strain); 24 hours P.I., 300 cells examined, control 50 of 50) was 8, the Total % (HSV-1 (McKrae strain); 24 hours P.I., 300 cells examined, control 100%) was 6% and the nucleocapsid size (HSV-1 (McKrae strain); 24 hours post infection) was “about 99.6 A”. The nucleocapsids in cytoplasm (HSV-1 (McKrae strain); 24 hours post infection) was “coreless nucleocapsids in paracrystalline arrays”, the “virus particles in inter-cellular space” value (HSV-1 (McKrae strain); 24 hours post infection) was “some abnormal virus particles were detected” and the cell layer appearance (vaccinia) was “thin”. For the same compound, the plaque formation (vaccinia) was “did not have any plaque”.
